Test results taken from patent US20250034216A1, “STEREOSELECTIVE COVALENT LIGANDS FOR ONCOGENIC AND IMMUNOLOGICAL PROTEINS” (The Scripps Research Institute, priority 2021, published 2025).

Assays:
Experiment in all cases: IA-DTB cysteine engagement
Assay type in all cases: binding
CRYBG1_C1574 = molecular target: T1, CRYBG1_C1574 (Homo sapiens, UniProt Q9Y4K1); details: 22Rv1 cells, 20 μM probe, 1 h, relative to DMSO
T1 construct: endogenous in cells; host or cells: 22Rv1
Procedure, shortened: (§1)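 Competitive chemoproteomics: residual cysteine reactivity toward IA-DTB in lysates from probe-treated cells was quantified by TMT reporter ions relative to DMSO-treated controls. Replicates sharing cell line, probe, concentration and duration were averaged.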

TMEM50A_C13 = molecular target: T2, TMEM50A_C13 (Homo sapiens, UniProt O95807); details: 22Rv1 cells, 20 μM probe, 1 h, relative to DMSO
T2 construct: endogenous in cells; host or cells: 22Rv1
T2 sequence (O95807 whole entry): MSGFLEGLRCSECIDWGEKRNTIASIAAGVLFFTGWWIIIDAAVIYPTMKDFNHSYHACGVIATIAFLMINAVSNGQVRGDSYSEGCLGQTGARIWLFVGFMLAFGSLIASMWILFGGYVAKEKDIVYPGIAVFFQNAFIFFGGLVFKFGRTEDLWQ
Procedure, shortened: as §1

CENPC_C291 = molecular target: T3, CENPC_C291 (Homo sapiens, UniProt Q03188); details: 22Rv1 cells, 20 μM probe, 1 h, relative to DMSO
T3 construct: endogenous in cells; host or cells: 22Rv1
T3 sequence (Q03188 whole entry): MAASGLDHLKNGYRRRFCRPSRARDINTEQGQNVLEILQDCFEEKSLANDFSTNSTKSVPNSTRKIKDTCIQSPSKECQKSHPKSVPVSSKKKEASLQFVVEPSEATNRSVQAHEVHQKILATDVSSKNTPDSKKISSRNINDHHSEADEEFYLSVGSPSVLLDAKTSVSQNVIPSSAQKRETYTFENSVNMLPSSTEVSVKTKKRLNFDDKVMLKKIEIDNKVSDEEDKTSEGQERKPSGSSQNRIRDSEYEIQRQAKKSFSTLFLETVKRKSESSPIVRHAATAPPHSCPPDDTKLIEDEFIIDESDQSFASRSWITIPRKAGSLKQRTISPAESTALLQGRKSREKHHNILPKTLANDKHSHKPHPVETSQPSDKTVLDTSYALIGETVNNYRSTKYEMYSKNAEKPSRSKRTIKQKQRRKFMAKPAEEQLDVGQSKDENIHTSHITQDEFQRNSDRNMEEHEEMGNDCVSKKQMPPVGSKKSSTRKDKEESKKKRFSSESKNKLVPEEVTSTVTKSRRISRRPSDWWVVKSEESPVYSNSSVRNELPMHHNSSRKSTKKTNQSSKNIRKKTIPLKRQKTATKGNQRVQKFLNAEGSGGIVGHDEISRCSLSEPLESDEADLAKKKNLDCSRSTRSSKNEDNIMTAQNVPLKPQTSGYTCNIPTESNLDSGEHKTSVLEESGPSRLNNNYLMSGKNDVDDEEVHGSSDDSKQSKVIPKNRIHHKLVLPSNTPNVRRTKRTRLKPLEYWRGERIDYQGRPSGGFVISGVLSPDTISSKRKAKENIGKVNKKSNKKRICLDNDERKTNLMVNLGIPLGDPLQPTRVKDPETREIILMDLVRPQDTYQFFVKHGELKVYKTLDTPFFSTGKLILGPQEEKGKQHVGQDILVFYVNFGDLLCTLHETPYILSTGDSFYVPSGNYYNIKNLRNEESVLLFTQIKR
Procedure, shortened: as §1

PNPLA8_C100 = molecular target: T4, PNPLA8_C100 (Homo sapiens, UniProt Q9NP80); details: 22Rv1 cells, 20 μM probe, 1 h, relative to DMSO
T4 construct: endogenous in cells; host or cells: 22Rv1
T4 sequence (Q9NP80 1-782): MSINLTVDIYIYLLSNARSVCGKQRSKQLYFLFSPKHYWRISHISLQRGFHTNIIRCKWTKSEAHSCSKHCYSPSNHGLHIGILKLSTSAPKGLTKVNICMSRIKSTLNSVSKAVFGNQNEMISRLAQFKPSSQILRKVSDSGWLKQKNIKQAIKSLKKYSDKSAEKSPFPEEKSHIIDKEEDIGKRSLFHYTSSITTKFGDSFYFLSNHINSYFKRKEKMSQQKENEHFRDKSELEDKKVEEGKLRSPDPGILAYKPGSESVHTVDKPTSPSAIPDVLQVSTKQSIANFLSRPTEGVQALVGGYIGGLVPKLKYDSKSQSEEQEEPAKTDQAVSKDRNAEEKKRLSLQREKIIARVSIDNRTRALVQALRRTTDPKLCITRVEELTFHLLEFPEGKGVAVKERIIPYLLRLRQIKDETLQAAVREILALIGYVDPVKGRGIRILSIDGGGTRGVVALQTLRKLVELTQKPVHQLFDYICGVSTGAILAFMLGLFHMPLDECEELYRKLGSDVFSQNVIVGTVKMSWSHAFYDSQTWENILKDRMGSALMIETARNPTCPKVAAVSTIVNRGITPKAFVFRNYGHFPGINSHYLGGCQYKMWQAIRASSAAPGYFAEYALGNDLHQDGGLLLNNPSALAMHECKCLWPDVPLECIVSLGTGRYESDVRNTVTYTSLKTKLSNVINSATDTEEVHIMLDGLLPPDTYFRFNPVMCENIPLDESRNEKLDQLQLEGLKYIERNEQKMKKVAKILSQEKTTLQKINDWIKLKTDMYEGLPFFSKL
Procedure, shortened: as §1

ITPR2_C579 = molecular target: T5, ITPR2_C579 (Homo sapiens, UniProt Q14571); details: 22Rv1 cells, 20 μM probe, 1 h, relative to DMSO
T5 construct: endogenous in cells; host or cells: 22Rv1
T5 sequence (Q14571 whole entry): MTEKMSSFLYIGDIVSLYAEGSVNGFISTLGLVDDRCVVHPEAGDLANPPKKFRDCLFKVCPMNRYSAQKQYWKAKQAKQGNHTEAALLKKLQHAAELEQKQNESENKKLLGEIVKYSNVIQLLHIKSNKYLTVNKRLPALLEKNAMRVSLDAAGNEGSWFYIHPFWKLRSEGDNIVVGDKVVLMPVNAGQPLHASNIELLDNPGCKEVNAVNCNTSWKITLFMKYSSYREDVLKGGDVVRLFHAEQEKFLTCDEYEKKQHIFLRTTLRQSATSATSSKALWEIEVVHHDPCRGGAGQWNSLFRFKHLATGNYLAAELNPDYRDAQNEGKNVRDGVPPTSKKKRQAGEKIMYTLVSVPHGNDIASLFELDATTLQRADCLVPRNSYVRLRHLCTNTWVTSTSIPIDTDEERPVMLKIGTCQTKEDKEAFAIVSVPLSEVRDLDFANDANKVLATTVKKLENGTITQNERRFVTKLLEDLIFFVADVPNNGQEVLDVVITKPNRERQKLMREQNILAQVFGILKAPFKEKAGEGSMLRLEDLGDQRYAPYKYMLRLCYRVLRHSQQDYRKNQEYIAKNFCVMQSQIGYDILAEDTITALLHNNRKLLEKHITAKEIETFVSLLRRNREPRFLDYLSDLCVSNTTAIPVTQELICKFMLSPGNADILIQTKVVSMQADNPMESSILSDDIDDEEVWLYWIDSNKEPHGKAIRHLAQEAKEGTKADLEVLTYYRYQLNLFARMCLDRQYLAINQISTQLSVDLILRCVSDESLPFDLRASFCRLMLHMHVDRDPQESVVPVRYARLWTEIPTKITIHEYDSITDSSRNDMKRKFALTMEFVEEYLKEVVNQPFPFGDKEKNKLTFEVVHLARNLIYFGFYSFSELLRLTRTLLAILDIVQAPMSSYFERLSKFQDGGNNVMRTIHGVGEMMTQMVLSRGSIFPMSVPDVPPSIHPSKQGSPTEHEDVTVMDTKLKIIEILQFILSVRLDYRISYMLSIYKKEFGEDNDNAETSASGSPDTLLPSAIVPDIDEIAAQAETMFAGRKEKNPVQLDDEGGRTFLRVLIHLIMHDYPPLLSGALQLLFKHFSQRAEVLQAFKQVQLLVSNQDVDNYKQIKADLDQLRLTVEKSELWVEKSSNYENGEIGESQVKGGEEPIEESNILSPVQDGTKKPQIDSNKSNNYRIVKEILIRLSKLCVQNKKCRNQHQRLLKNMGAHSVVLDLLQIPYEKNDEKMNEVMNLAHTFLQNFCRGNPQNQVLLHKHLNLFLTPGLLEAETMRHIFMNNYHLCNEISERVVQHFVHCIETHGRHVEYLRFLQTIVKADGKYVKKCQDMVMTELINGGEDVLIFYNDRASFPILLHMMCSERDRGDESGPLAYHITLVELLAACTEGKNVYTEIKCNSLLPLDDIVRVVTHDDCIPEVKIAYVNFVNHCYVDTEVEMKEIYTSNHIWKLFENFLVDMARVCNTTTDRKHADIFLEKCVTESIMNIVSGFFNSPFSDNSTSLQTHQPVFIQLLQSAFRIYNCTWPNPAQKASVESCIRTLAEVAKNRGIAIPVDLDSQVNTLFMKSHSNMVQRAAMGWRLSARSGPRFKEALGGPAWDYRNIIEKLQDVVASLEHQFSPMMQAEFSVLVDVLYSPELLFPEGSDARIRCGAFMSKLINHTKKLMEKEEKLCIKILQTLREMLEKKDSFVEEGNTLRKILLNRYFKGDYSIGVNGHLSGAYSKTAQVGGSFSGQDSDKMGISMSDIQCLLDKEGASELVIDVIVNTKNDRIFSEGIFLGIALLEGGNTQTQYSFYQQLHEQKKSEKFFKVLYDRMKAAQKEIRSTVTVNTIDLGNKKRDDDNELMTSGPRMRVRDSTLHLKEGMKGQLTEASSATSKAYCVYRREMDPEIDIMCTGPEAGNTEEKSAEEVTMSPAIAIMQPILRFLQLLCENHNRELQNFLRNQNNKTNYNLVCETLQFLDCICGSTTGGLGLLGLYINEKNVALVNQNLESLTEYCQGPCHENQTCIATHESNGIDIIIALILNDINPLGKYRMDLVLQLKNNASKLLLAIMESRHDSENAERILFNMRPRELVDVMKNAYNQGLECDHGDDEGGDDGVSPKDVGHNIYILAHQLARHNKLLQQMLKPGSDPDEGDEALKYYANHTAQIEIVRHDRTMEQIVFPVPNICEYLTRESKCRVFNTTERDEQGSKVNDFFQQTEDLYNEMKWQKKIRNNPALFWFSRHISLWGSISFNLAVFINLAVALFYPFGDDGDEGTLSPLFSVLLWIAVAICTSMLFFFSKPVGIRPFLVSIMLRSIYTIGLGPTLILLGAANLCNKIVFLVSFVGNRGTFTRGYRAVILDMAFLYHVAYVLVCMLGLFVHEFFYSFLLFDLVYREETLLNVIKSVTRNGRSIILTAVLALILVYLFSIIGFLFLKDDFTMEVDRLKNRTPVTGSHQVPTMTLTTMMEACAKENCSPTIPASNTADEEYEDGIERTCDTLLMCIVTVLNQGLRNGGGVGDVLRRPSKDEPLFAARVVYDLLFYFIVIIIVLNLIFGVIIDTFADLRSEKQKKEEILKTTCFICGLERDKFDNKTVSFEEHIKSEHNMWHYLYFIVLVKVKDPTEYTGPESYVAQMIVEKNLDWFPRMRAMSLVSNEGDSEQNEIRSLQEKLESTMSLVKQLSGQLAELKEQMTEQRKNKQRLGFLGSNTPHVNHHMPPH
Procedure, shortened: as §1

PSME1_C22 = molecular target: T6, PSME1_C22 (Homo sapiens, UniProt Q06323); details: 22Rv1 cells, relative to DMSO; for % engagement PSME1_C22: 20 μM probe, 1 h; for % engagement PSME1_22: 5 μM probe, 1 h (FIG. 5B)
T6 construct: endogenous in cells; host or cells: 22Rv1
T6 sequence (Q06323 whole entry): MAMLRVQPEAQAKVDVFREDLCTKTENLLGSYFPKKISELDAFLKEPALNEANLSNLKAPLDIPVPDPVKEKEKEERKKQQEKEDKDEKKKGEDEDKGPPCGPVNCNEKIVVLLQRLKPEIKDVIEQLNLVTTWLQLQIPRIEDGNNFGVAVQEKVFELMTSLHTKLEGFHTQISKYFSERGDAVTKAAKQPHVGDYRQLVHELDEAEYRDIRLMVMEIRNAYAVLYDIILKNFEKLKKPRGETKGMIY
Procedure, shortened: as §1

PAFAH2_C72 = molecular target: T7, PAFAH2_C72 (Homo sapiens, UniProt Q99487); details: 22Rv1 cells, 20 μM probe, 1 h, relative to DMSO
T7 construct: endogenous in cells; host or cells: 22Rv1
Procedure, shortened: as §1

GCN1_C1095 = molecular target: T8, GCN1_C1095 (Homo sapiens, UniProt Q92616); details: 22Rv1 cells, 20 μM probe, 1 h, relative to DMSO
T8 construct: endogenous in cells; host or cells: 22Rv1
Procedure, shortened: as §1

| SMILES | % engagement CRYBG1_C1574 (CRYBG1_C1574) [%] | % engagement TMEM50A_C13 (TMEM50A_C13) [%] | % engagement CENPC_C291 (CENPC_C291) [%] | % engagement PNPLA8_C100 (PNPLA8_C100) [%] | % engagement ITPR2_C579 (ITPR2_C579) [%] | % engagement PSME1_C22 (PSME1_C22) [%] | % engagement PAFAH2_C72 (PAFAH2_C72) [%] | % engagement GCN1_C1095 (GCN1_C1095) [%] | % engagement PSME1_22 (PSME1_C22) [%] |
| --- | --- | --- | --- | --- | --- | --- | --- | --- | --- |
| C=CC(=O)N1C[C@@H](c2ccc(Br)cc2)[C@H]1C(=O)Nc1cccc2cccnc12 [MY-1A, (2S,3R)-1-acryloyl-3-(4-bromophenyl)-N-(quinolin-8-yl)azetidine-2-carboxamide] | 23 | 63.5 | −1.5 | 67 | 7.75 | −2.25 | 61.75 | 18.5 |  |
| C=CC(=O)N1C[C@H](c2ccc(Br)cc2)[C@@H]1C(=O)Nc1cccc2cccnc12 [MY-1B, (2R,3S)-1-acryloyl-3-(4-bromophenyl)-N-(quinolin-8-yl)azetidine-2-carboxamide] | 72 | 58 | 7 | 59.5 | 11.25 | 67.75 | 61 | 84 | 44.38 |
| C=CC(=O)N1C[C@H](c2ccc(Br)cc2)[C@H]1C(=O)Nc1cccc2cccnc12 [MY-3A, (2S,3S)-1-acryloyl-3-(4-bromophenyl)-N-(quinolin-8-yl)azetidine-2-carboxamide] | 28.5 | 60.5 | 28 | 48 | 4.5 | −14.5 | 56.75 | 5 |  |
| C=CC(=O)N1C[C@H](c2ccc(Br)cc2)[C@H]1C(=O)Nc1cccc2cccnc12 [MY-3B, (2S,3S)-1-acryloyl-3-(4-bromophenyl)-N-(quinolin-8-yl)azetidine-2-carboxamide] | 13.5 | 68.5 | 82.5 | 70.5 | 70.75 | −31.75 | 81 | −7.5 |  |
| CC#CC(=O)N1C[C@H](c2ccc(Br)cc2)[C@@H]1C(=O)Nc1cccc2cccnc12 [MY-45B, (2R,3S)-3-(4-bromophenyl)-1-(but-2-ynoyl)-N-(quinolin-8-yl)azetidine-2-carboxamide] |  |  |  |  |  |  |  |  | 69.50 |
